Common to all, as to format: biochemical
Assay [1] concerns the target T1, Protein tyrosine phosphatase from Yersinia enterocolitica (YOP) (Yersinia enterocolitica, UniProt P15273).
T1 construct: purchased Calbiochem
Briefly: Enzyme activity assay: PTP-catalyzed hydrolysis of substrates by YOP. Particulars: pH 7.1, room temperature; for Km: read-out: Km (best fit to the Michaelis-Menten equation). The source says:
(§1) Protein tyrosine phosphatase from Yersinia enterocolitica (YOP)^16 and human T-cell PTP (TCPTP)^17 were obtained from Calbiochem in purified form and used as received. Reagents for solid phase peptide synthesis including Fmoc protected amino acids and Rink Amide resin were obtained from Novabiochem and used without further purification. Trichloroethanol (TCE), resorcinol, dicyclohexylcarbodiimide (DCC) and N,N-dimethylaminopyridine (DMAP) were obtained from Lancaster, isopropenyl chloroformate (IPCF) from Acros Organics, trifluoroacetic acid (TFA) from Oakwood Chemicals and methanesulfonic acid, diethyl chlorophosphate and zinc dust were obtained from Aldrich Chemical Company. Dry solvents were obtained from VWR and Aldrich. Fluorinated resorcinols were synthesized according to a literature procedure.^18 All of the chemicals were used as received, except zinc, which was activated prior to use by washing with 20% HCl, followed by water and acetone.
^1H, ^13C, and ^31P NMR spectra were recorded on Bruker AC 250, Bruker AC 360 and Varian 400 MHz instruments. Peptides were purified on a Varian ProStar 210 HPLC system using a preparative-scale C18 reverse-phase column. Mass spectrometric characterization was carried out using an Applied Biosystems Voyager-DE STR MALDI-TOF instrument with α-cyanohydroxycinnamic acid as the matrix. Enzyme assays with fluorogenic substrates were performed on a Molecular Devices Analyst AD multimode plate reader in fluorescence mode with an excitation filter, emission filter and dichroic mirror at 360 nm, 425 nm, and 400 nm, respectively. Enzymatic hydrolysis of the phosphotyrosine-containing peptide DADE-phpsphotyrosine-GPAA (9a) was followed by observing an increase in absorbance at 280 nm using a Varian Cary50 spectrophotometer.
Standard conditions employed to determine the kinetic constants of each substrate with YOP and TCPTP are described below. Substrates were dissolved in DMSO and diluted to the appropriate concentration in DMSO. Aliquots were taken such that each reaction had the same amount of DMSO, which never exceeded 5% of the reaction volume (usually 200 μL). The buffer used for all studies contained 50 mM HEPES, pH 7.1, 100 mM NaCl, 2 mM EDTA, 0.01% Brij 35, 1 mM dithiothreitol (DTT). Prior to each reaction, the enzyme was incubated in buffer with freshly added DTT for 10 min on ice. […] The increase in signal (absorbance or fluorescence) due to substrate hydrolysis was measured every 60 s for 30 min. […] Standard curves were prepared using authentic samples of the appropriate product, relative fluorescence or absorbance units were converted into concentration of product formed, and the resulting data was fit to the Michaelis-Menten equation, providing kinetic parameters for each substrate.

Assay [2] has as its target protein tyrosine kinase Csk (Homo sapiens, UniProt P41240). Briefly: Kinase assay: MU as substrate for Csk. The settings on record: fluorescence decrease, ATP, pH 6.8. Here is the method:
Currently kinases assays are done using radioactive ATP. We envision that a highly sensitive fluorescence based assay would be more convenient. MU, an analog of CAP, was tested as a substrate for the protein tyrosine kinase Csk, to check the viability of the idea (FIG. 8). […] In addition, the fluorinated derivatives also serve as sensitive fluorescent assays for PTK activity.
Stock solutions of MU were prepared in DMSO to make 1 and 10 mM solutions. For enzymatic assays, various aliquots of each substrate and DMSO (to a total of 5 μL) were placed on a 96 well plate, incubated with 75 μL buffer (30 mM HEPES, 5 mM MgCl2, 0.01% Brij 35, pH 6.8) for 5 mins, treated with 1 μL of 10 mM ATP, followed by 20 μL of 12.8 nM Csk. The decrease in signal (fluorescence) due to substrate phosphorylation was measured every 60 s for 30 min. Each reaction was run in triplicate and the results averaged. Standard curves were prepared using authentic samples of the appropriate substrate, relative fluorescence units were converted into concentration of substrate left unreacted, and the resulting data was fit to the Michaelis-Menten equation, providing kinetic parameters for each substrate.

Assay [3] has as its target T2, human T-cell PTP (TCPTP) (Homo sapiens, UniProt P17706).
T2 construct: purchased Calbiochem
T2 sequence (P17706 1-415): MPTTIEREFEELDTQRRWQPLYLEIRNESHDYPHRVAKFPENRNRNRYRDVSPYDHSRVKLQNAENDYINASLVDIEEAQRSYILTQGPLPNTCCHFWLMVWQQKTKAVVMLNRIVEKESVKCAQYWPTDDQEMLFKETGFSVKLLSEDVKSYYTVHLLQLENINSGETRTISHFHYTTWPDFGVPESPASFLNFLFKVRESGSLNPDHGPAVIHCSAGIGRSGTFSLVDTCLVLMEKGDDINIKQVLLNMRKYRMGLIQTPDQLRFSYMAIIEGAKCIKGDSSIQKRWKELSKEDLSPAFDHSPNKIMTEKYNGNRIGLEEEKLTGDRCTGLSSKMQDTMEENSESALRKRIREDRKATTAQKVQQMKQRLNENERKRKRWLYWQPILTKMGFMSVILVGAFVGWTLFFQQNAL
As to the kind of experiment: Enzyme activity assay: PTP-catalyzed hydrolysis of substrates by TCPTP. Particulars: pH 7.1, 30° C.
From the text: as §1, with “Fluorinated resorcinols were synthesized according to a literature procedure.^18 All of the chemicals were used as received, except zinc, which was activated prior to use by washing with 20% HCl, followed by water and acetone.” left out
^1H, ^13C, and ^31P NMR spectra were recorded on Bruker AC 250, Bruker AC 360 and Varian 400 MHz instruments. […] Enzyme assays with fluorogenic substrates were performed on a Molecular Devices Analyst AD multimode plate reader in fluorescence mode with an excitation filter, emission filter and dichroic mirror at 360 nm, 425 nm, and 400 nm, respectively. Enzymatic hydrolysis of the phosphotyrosine-containing peptide DADE-phpsphotyrosine-GPAA (9a) was followed by observing an increase in absorbance at 280 nm using a Varian Cary50 spectrophotometer. […]

Where a SMILES comes first, the peptide text is derived from it. [ ]: non-standard residue; d: D form. pY = N[C@@H](Cc1ccc(OP(=O)(O)O)cc1)C(=O)O

T1 sequence (P15273 whole entry): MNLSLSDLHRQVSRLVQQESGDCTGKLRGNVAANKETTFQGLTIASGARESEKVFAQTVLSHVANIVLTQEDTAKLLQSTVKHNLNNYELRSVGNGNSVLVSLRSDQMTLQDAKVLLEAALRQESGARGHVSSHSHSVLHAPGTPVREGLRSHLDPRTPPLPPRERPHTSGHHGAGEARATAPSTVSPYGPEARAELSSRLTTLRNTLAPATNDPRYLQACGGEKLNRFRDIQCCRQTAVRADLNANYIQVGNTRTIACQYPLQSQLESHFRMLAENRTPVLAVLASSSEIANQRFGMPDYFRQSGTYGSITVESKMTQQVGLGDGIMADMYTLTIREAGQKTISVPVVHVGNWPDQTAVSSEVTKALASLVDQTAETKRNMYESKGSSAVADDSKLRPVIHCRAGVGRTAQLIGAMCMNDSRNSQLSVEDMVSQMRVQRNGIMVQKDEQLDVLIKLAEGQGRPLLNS
Sequence of protein tyrosine kinase Csk (P41240 whole entry): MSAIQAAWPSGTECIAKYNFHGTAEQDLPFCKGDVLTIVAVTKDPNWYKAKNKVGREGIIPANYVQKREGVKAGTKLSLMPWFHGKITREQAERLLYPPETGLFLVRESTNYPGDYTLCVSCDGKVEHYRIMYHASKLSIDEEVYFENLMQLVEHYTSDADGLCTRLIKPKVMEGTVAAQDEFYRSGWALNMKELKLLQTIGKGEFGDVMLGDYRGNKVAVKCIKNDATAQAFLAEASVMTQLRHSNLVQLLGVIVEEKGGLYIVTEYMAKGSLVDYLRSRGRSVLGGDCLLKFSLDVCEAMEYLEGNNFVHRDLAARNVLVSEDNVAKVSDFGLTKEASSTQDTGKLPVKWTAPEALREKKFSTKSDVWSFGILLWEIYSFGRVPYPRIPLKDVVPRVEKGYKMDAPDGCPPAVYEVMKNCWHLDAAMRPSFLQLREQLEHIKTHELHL

By Km is commonly meant the substrate concentration at which the rate is half of its maximum. In the case of `C[C@H](NC(=O)[C@H](C)NC(=O)[C@@H]1CCCN1C(=O)CNC(=O)[C@H](Cc1ccc(OP(=O)(O)O)cc1)NC(=O)[C@H](CCC(=O)O)NC(=O)[C@H](CC(=O)O)NC(=O)[C@H](C)NC(=O)[C@@H](N)CC(=O)O)C(N)=O` [9a, DADE-pY-GPAA-NH2] (H-DADE[pY]GPAA-NH2), in assay [1], the “kcat (best fit to the Michaelis-Menten equation)” value (“kcat” below) amounted to 100 ± 20 s⁻¹ and the Km was 2700 ± 800 µM.

As for `Cc1cc(=O)oc2cc(O)ccc12` [MU, 4-methylumbelliferone], the “phosphorylation of substrate by Csk” value in assay [2] is on record as “Csk indeed phosphorylated MU to MUP”.

Turning to `Cc1cc(=O)oc2cc(OP(=O)(O)O)ccc12` [MUP], in assay [1], the “kcat” value was 5.7 ± 0.5 s⁻¹ and the Km is 800 ± 200 µM.

In the case of DADE-pCAP-GPAA-NH2 [10a], the “kcat” value in assay [3] is 35 ± 10 s⁻¹. For the same compound, the Km in assay [3] (read-out: Km (best fit to the Michaelis-Menten equation)) stood at 800 ± 300 µM.
